Data set [1] is described as follows: Cytotoxicity against human A549-ACE2 cells assessed as cell viability at 0.1 uM incubated for 48 hrs by CellTiter-Glo2 assay relative to control. The following applies: a549-ace2, 48 h. Format: toxicity, cell-based. A general note: ATP-based viability assays read luminescence as a measure of living cells.
A short description of data set [2]: Kinetic solubility of compound in PBS at pH 7.4 incubated for 24 hrs by HPLC analysis. Format: physicochemical. The settings on record: buffer, pH 7.4, 24 h.
For data set [3], the target named is Casein kinase II subunit alpha' (Homo sapiens, UniProt P19784). In words: Inhibition of NLuc-fused CSNK2A2 (unknown origin) expressed in HEK293 cells incubated for 2 hrs by NanoBRET assay. Format: cell-based. A general note: Bioluminescence resonance energy transfer reports proximity on the nanometre scale.
Chain of Casein kinase II subunit alpha' (P19784 whole entry, the tested form may be a part): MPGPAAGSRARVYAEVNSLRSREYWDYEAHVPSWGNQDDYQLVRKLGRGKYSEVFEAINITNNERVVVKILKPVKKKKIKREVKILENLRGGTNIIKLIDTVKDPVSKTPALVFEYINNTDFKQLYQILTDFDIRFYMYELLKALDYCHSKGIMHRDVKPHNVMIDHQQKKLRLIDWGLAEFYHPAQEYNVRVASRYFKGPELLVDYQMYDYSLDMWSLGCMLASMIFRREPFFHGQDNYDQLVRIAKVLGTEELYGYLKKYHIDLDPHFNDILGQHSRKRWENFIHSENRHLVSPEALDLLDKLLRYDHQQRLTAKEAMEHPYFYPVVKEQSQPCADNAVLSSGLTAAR
The test system of the next data set is Murine hepatitis virus. In words: Antiviral activity against Murine hepatitis virus infected in mouse DBT cells preincubated with cells for 1 hrs followed by viral infection and measured after 10 hrs by luminometer. Type of data set: functional, organism-based. The settings on record: Murine coronavirus.
Data set [4] is described as follows: Cytotoxicity against human A549-ACE2 cells assessed as cell viability at 1 uM incubated for 48 hrs by CellTiter-Glo2 assay relative to control. Type of data set: toxicity, cell-based. The following applies: a549-ace2, 48 h.

Take `CCN(CC)CCN(C)c1ccc(Nc2cc(NC3CC3)n3ncc(C#N)c3n2)cc1-n1cnnc1`: the Activity in data set [1] was determined as 98%; in data set [4] it was 100%. In data set [2], this molecule registered a Kinetic_solubility of 60 µg/mL. The IC50 in data set [3] is 100 nM; with Murine hepatitis virus, 794 nM.

Take `N#Cc1cnn2c(NC3CC3)cc(Nc3ccc(F)c(-n4cnnc4)c3)nc12`: the Activity in data set [1] and in data set [4] was 99% throughout. In data set [2], this molecule showed a Kinetic_solubility of 0.3 µg/mL. In addition, the IC50 in data set [3] is 5.01 nM; with Murine hepatitis virus, 316 nM.

In the case of `N#Cc1cnn2c(NC3CC3)cc(Nc3cc(-n4cnnc4)ccc3F)nc12`, the values for the Activity in data set [1] and in data set [4] were 86% and 59%, respectively. The same molecule showed a Kinetic_solubility in data set [2] of 1.5 µg/mL. Further, the half-maximal inhibitory concentration (IC50) is 3.16 nM in data set [3] and 6.31 nM in the data set on Murine hepatitis virus.

Regarding `CN(C)CCn1cnc(Nc2cc(Nc3cccc(-n4cnnc4)c3)nc3c(C#N)cnn23)c1`, the Kinetic_solubility in data set [2] was determined as 30 µg/mL. The values for the half-maximal inhibitory concentration (IC50) (in data set [3]; with Murine hepatitis virus) were 501 nM and greater than 10000 nM, respectively.

`N#Cc1cnn2c(NC3CC3)cc(Nc3ccc(N4CC[C@@H](N)C4)c(-n4cnnc4)c3)nc12` yielded a Kinetic_solubility in data set [2] of 44 µg/mL. Moreover, the half-inhibitory concentration (IC50) in data set [3] is 251 nM; in the data set with Murine hepatitis virus, 2510 nM.

`CN(CCN)c1cc(F)c(Nc2cc(NC3CC3)n3ncc(C#N)c3n2)cc1-n1cnnc1` came in with a Kinetic_solubility in data set [2] of 41 µg/mL. For the same molecule, the concentration for half-maximal inhibition (IC50) was 1000 nM in data set [3] and 2510 nM with Murine hepatitis virus.

For `N#Cc1cnn2c(NC3CCC3)cc(Nc3cccc(-n4cnnc4)c3)nc12`, the Kinetic_solubility in data set [2] was determined as 0.18 µg/mL. Further, the IC50 in data set [3] is 7.94 nM; in the data set on Murine hepatitis virus it was 79.4 nM. Also, the Activity in data set [4] amounted to 93%.

In turn, `N#Cc1cnn2c(Nc3ccn(CCN4CCCC4)n3)cc(Nc3cccc(-n4cnnc4)c3)nc12` returned a Kinetic_solubility in data set [2] of 35 µg/mL. Moreover, the values for the IC50 (in data set [3]; in the data set with Murine hepatitis virus) were 25.1 nM and 1580 nM, respectively.

Consider `N#Cc1cnn2c(NC3CC3)cc(Nc3ccc(N4CC[C@H](N)C4)c(-n4cnnc4)c3)nc12`, for which the Kinetic_solubility in data set [2] turned out to be 49 µg/mL. Further, the values for the IC50 (in data set [3]; in the data set with Murine hepatitis virus) were 158 nM and 398 nM, respectively. Further, the Activity in data set [4] is on record as 85%.

`CNCCn1ccc(Nc2cc(Nc3cccc(-n4cnnc4)c3)nc3c(C#N)cnn23)n1` showed a Kinetic_solubility in data set [2] of 2.1 µg/mL. Besides, the values for the IC50 (in data set [3]; in the data set with Murine hepatitis virus) were 79.4 nM and greater than 10000 nM, respectively.

In data set [2], `CN(CCO)c1cc(F)c(Nc2cc(NC3CC3)n3ncc(C#N)c3n2)cc1-n1cnnc1` displayed a Kinetic_solubility of 2.6 µg/mL. Also, the figures for the IC50 (in data set [3]; in the data set with Murine hepatitis virus) were 63.1 nM and 2510 nM, respectively.

For `N#Cc1cnn2c(NC3CC3)cc(Nc3cccc(-c4cnn[nH]4)c3)nc12`, the Activity in data set [1] was 100%; in data set [4], 85%. For the same molecule, the half-maximal inhibitory concentration (IC50) was 10 nM in data set [3] and 79.4 nM in the data set on Murine hepatitis virus.

`N#Cc1cnn2c(NC3CC3)cc(Nc3ccc(N4CCC[C@H](N)C4)c(-n4cnnc4)c3)nc12` returned a Kinetic_solubility in data set [2] of 47 µg/mL. The concentration for half-maximal inhibition (IC50) is 126 nM in data set [3] and 631 nM with Murine hepatitis virus.

In the case of `CNCCN(C)c1ccc(Nc2cc(NC3CC3)n3ncc(C#N)c3n2)cc1-n1cnnc1`, in data set [2], the Kinetic_solubility came out at 16 µg/mL. In addition, the IC50 was 126 nM in data set [3] and 1000 nM in the data set on Murine hepatitis virus.

In turn, `Cn1cnc(Nc2cc(Nc3cccc(-n4cnnc4)c3)nc3c(C#N)cnn23)c1` yielded a Kinetic_solubility in data set [2] of 3.1 µg/mL. Moreover, the IC50 was 79.4 nM in data set [3] and 794 nM with Murine hepatitis virus.

The molecule `CN(CCN1CCOCC1)c1ccc(Nc2cc(NC3CC3)n3ncc(C#N)c3n2)cc1-n1cnnc1` had a Kinetic_solubility in data set [2] of 25 µg/mL. For the same molecule, the IC50 was 79.4 nM in data set [3] and 631 nM with Murine hepatitis virus.

In turn, `N#Cc1cnn2c(NC3CC3)cc(Nc3cc(-n4cnnc4)ccn3)nc12` came in with a Kinetic_solubility in data set [2] of 1.2 µg/mL. Besides, the IC50 in data set [3] was 10 nM; in the data set on Murine hepatitis virus, 158 nM. In addition, the Activity in data set [4] was found to be 96%.

For orientation: IC50 means the point on the concentration scale where inhibition reaches its midpoint. A lower IC50 goes with greater potency in that assay.
